# Experimental data from paper PMC10518255, “A first-in-class pan-lysyl oxidase inhibitor impairs stromal remodeling and enhances gemcitabine response and survival in pancreatic cancer” (Nature Cancer, 2023).
# Read-outs that look alike come from different tables or passages of the source.
# Tests used:
# [1] = molecular target: T1, LOXL2 (Homo sapiens, UniProt Q9Y4K0); experiment: Time-dependent inhibition with pre-incubation 0-240 min (Fig. 2e); assay type: biochemical; conditions: for remaining activity at 30 µM: log conc -4.52288; for remaining activity at 30 µM / remaining activity at 10 µM / remaining activity at 3.333 µM / remaining activity at 1.111 µM / remaining activity at 0.3704 µM / remaining activity at 0.12346 µM / remaining activity at 0.04115 µM / remaining activity at 0.013717 µM / remaining activity at 0.004572 µM / remaining activity at 0.001524 µM / remaining activity at 0.0005081 µM / remaining activity at 0.0001694 µM: read-out: LOXL2 specific activity; for remaining activity at 10 µM: log conc -5; for remaining activity at 3.333 µM: log conc -5.47712; for remaining activity at 1.111 µM: log conc -5.95424; for remaining activity at 0.3704 µM: log conc -6.43136; for remaining activity at 0.12346 µM: log conc -6.90849; for remaining activity at 0.04115 µM: log conc -7.38561; for remaining activity at 0.013717 µM: log conc -7.86273; for remaining activity at 0.004572 µM: log conc -8.33985; for remaining activity at 0.001524 µM: log conc -8.81697; for remaining activity at 0.0005081 µM: log conc -9.29409; for remaining activity at 0.0001694 µM: log conc -9.77121
# T1 sequence (Q9Y4K0 26-774): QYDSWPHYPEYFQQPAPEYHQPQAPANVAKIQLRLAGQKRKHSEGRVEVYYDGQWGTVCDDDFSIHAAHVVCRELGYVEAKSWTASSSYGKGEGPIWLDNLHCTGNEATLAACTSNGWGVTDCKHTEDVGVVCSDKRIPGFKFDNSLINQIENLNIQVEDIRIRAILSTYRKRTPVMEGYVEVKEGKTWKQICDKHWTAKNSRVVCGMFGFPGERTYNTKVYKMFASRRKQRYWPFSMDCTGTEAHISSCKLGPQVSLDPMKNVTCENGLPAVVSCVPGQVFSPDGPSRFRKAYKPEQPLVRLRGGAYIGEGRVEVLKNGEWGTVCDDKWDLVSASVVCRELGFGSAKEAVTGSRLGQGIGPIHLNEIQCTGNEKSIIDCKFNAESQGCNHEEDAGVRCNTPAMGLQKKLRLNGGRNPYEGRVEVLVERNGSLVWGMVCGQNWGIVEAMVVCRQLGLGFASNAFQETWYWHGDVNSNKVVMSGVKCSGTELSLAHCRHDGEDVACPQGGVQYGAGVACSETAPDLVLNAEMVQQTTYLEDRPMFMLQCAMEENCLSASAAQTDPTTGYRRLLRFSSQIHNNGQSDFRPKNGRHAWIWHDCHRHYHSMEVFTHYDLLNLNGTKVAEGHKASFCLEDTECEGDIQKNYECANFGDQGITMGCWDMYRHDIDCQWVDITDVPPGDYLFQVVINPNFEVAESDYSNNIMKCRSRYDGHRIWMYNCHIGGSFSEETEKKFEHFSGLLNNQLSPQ
# Text: Data are presented as mean ± s.d. […] Data presented as mean ± s.d. […] Source data TEXT PRINTED IN THE PICTURE: (b) PXS-5505: Recombinant DAO IC50 (nM): >30,000; Recombinant SSAO/VAP1 IC50 (nM): >30,000; Recombinant MAO-A IC50 (nM): >30,000; Recombinant MAO-B IC50 (nM): >30,000 | (f) PXS-5505: Fibroblast LOX IC50 (nM): 4,930; Recombinant LOXL-1 IC50 (nM): 1,590; Recombinant LOXL-2 IC50 (nM): 570; Recombinant LOXL-3 IC50 (nM): 1,800; Recombinant LOXL-4 IC50 (nM): 190
# Similar to other fluoroallylamine-based amine oxidase inhibitors, the mode of inhibition is assumed to be a two-step mechanism (Fig. 2c), with PXS-5505 reacting with the unique LTQ cofactor found within the active site. The fluoroallylamine facilitates the formation of a covalent, irreversible bond. […] Furthermore, in jump dilution experiments, there is no significant recovery of activity following rapid dilution (LOXL1 (5 ± 5% recovery, n = 4), LOXL2 (7 ± 1.2% recovery, n = 3) and LOXL3 (11 ± 2% recovery, n = 3)).
# [2] = molecular target: all lysyl oxidase family members; experiment: Lysyl oxidase enzymatic activity, fluorescence-based assay, IC50 range over the family; assay type: biochemical, human; conditions: range over the five family members; read-out: IC50 values against all lysyl oxidase family members
# Experimental: In characterizing PXS-5505, the half-maximum inhibitory concentration (IC50) values for each of the lysyl oxidase family members were determined by measuring enzymatic activity using a fluorescence-based assay.
smiles,measurement,setting,value
"Cl.Cl.NC/C=C(\F)CS(=O)(=O)c1cccc2cccnc12.O [PXS-5505, (Z)-3-fluoro-4-(quinolin-8-ylsulfonyl)but-2-en-1-amine dihydrochloride monohydrate]",remaining activity at 30 µM,"[1]; 0.25 h, pre-incubation 15 min",1.28%
same,remaining activity at 10 µM,"[1]; 0.25 h, pre-incubation 15 min",4.38%
same,remaining activity at 3.333 µM,"[1]; 0.25 h, pre-incubation 15 min",16%
same,remaining activity at 1.111 µM,"[1]; 0.25 h, pre-incubation 15 min",38.5%
same,remaining activity at 0.3704 µM,"[1]; 0.25 h, pre-incubation 15 min",64%
same,remaining activity at 0.12346 µM,"[1]; 0.25 h, pre-incubation 15 min",86.7%
same,remaining activity at 0.04115 µM,"[1]; 0.25 h, pre-incubation 15 min",93.6%
same,remaining activity at 0.013717 µM,"[1]; 0.25 h, pre-incubation 15 min",96.4%
same,remaining activity at 0.004572 µM,"[1]; 0.25 h, pre-incubation 15 min",99.2%
same,remaining activity at 0.001524 µM,"[1]; 0.25 h, pre-incubation 15 min",98.4%
same,remaining activity at 0.0005081 µM,"[1]; 0.25 h, pre-incubation 15 min",97.8%
same,remaining activity at 0.0001694 µM,"[1]; 0.25 h, pre-incubation 15 min",102%
same,remaining activity at 30 µM,"[1]; 0.5 h, pre-incubation 30 min",-0.266%
same,remaining activity at 10 µM,"[1]; 0.5 h, pre-incubation 30 min",-0.0903%
same,remaining activity at 3.333 µM,"[1]; 0.5 h, pre-incubation 30 min",4.21%
same,remaining activity at 1.111 µM,"[1]; 0.5 h, pre-incubation 30 min",17.3%
same,remaining activity at 0.3704 µM,"[1]; 0.5 h, pre-incubation 30 min",43.6%
same,remaining activity at 0.12346 µM,"[1]; 0.5 h, pre-incubation 30 min",72.5%
same,remaining activity at 0.04115 µM,"[1]; 0.5 h, pre-incubation 30 min",87.7%
same,remaining activity at 0.013717 µM,"[1]; 0.5 h, pre-incubation 30 min",93.2%
same,remaining activity at 0.004572 µM,"[1]; 0.5 h, pre-incubation 30 min",96.3%
same,remaining activity at 0.001524 µM,"[1]; 0.5 h, pre-incubation 30 min",109%
same,remaining activity at 0.0005081 µM,"[1]; 0.5 h, pre-incubation 30 min",99.4%
same,remaining activity at 0.0001694 µM,"[1]; 0.5 h, pre-incubation 30 min",103%
same,remaining activity at 30 µM,"[1]; 1 h, pre-incubation 60 min",-0.646%
same,remaining activity at 10 µM,"[1]; 1 h, pre-incubation 60 min",0.037%
same,remaining activity at 3.333 µM,"[1]; 1 h, pre-incubation 60 min",1.01%
same,remaining activity at 1.111 µM,"[1]; 1 h, pre-incubation 60 min",5.82%
same,remaining activity at 0.3704 µM,"[1]; 1 h, pre-incubation 60 min",23.2%
same,remaining activity at 0.12346 µM,"[1]; 1 h, pre-incubation 60 min",62.4%
same,remaining activity at 0.04115 µM,"[1]; 1 h, pre-incubation 60 min",86.9%
same,remaining activity at 0.013717 µM,"[1]; 1 h, pre-incubation 60 min",97.3%
same,remaining activity at 0.004572 µM,"[1]; 1 h, pre-incubation 60 min",101%
same,remaining activity at 0.001524 µM,"[1]; 1 h, pre-incubation 60 min",104%
same,remaining activity at 0.0005081 µM,"[1]; 1 h, pre-incubation 60 min",104%
same,remaining activity at 0.0001694 µM,"[1]; 1 h, pre-incubation 60 min",106%
same,remaining activity at 30 µM,"[1]; 2 h, pre-incubation 120 min",-0.278%
same,remaining activity at 10 µM,"[1]; 2 h, pre-incubation 120 min",1.09%
same,remaining activity at 3.333 µM,"[1]; 2 h, pre-incubation 120 min",1.27%
same,remaining activity at 1.111 µM,"[1]; 2 h, pre-incubation 120 min",2.05%
same,remaining activity at 0.3704 µM,"[1]; 2 h, pre-incubation 120 min",7.04%
same,remaining activity at 0.12346 µM,"[1]; 2 h, pre-incubation 120 min",36.3%
same,remaining activity at 0.04115 µM,"[1]; 2 h, pre-incubation 120 min",69.5%
same,remaining activity at 0.013717 µM,"[1]; 2 h, pre-incubation 120 min",87.9%
same,remaining activity at 0.004572 µM,"[1]; 2 h, pre-incubation 120 min",97.9%
same,remaining activity at 0.001524 µM,"[1]; 2 h, pre-incubation 120 min",102%
same,remaining activity at 0.0005081 µM,"[1]; 2 h, pre-incubation 120 min",102%
same,remaining activity at 0.0001694 µM,"[1]; 2 h, pre-incubation 120 min",103%
same,remaining activity at 30 µM,"[1]; 4 h, pre-incubation 240 min",-0.548%
same,remaining activity at 10 µM,"[1]; 4 h, pre-incubation 240 min",0.438%
same,remaining activity at 3.333 µM,"[1]; 4 h, pre-incubation 240 min",0.0615%
same,remaining activity at 1.111 µM,"[1]; 4 h, pre-incubation 240 min",0.566%
same,remaining activity at 0.3704 µM,"[1]; 4 h, pre-incubation 240 min",1.17%
same,remaining activity at 0.12346 µM,"[1]; 4 h, pre-incubation 240 min",14.1%
same,remaining activity at 0.04115 µM,"[1]; 4 h, pre-incubation 240 min",45.6%
same,remaining activity at 0.013717 µM,"[1]; 4 h, pre-incubation 240 min",71.8%
same,remaining activity at 0.004572 µM,"[1]; 4 h, pre-incubation 240 min",91.6%
same,remaining activity at 0.001524 µM,"[1]; 4 h, pre-incubation 240 min",95.6%
same,remaining activity at 0.0005081 µM,"[1]; 4 h, pre-incubation 240 min",101%
same,remaining activity at 0.0001694 µM,"[1]; 4 h, pre-incubation 240 min",102%
same,time-dependent inhibition of LOXL2 specific activity,[1]; pre-incubation time 0–240 min,increased potency with increased pre-incubation time
same,IC50,[2],200 to 5000 nM
